From ChEMBL document CHEMBL4651402, “Screening of ~5500 FDA-approved drugs and clinical candidates for anti-SARS-CoV-2 activity” (2021)

Test system: SARS-CoV-2
Experiment: microbe, parasite or virus in culture
Conditions: Severe acute respiratory syndrome coronavirus 2, Vero C1008, 48 h

C[C@@H](C(=O)O)c1ccc(-c2ccccc2)c(F)c1 [TARENFLURBIL]
IC50: > 20 µM
IC50 (read-out: pIC50 (converted)): > 20 µM

O=C(NCCNCC(O)COc1ccc(O)cc1)N1CCOCC1 (stereo not given) [XAMOTEROL]
IC50: > 20 µM
IC50 (read-out: pIC50 (converted)): > 20 µM

CC[C@@]1([C@@H]2O[C@@H]([C@H]3O[C@@](O)(CO)[C@H](C)C[C@@H]3C)C[C@@H]2C)CC[C@H]([C@]2(C)CC[C@]3(C[C@H](O)[C@@H](C)[C@@H]([C@@H](C)[C@@H](OC)[C@H](C)C(=O)O)O3)O2)O1 [MONENSIN]
IC50: > 20 µM
IC50 (read-out: pIC50 (converted)): > 20 µM

C[C@@H]1CCC2[C@H](C)C3CC[C@@]4(O)[C@@H]5CC(=O)[C@H]6CC(=O)CC[C@]6(C)C5C[C@H]4[C@@H]3CN2C1 (stereo not given in full)
IC50: > 20 µM
IC50 (read-out: pIC50 (converted)): > 20 µM

CC(C)C[C@H](NC(=O)CNC(=O)[C@H](Cc1ccc(O)cc1)NC(=O)[C@H](CO)NC(=O)[C@H](Cc1c[nH]c2ccccc12)NC(=O)[C@H](Cc1cnc[nH]1)NC(=O)[C@@H]1CCC(=O)N1)C(=O)N[C@@H](CCCNC(=N)N)C(=O)N1CCC[C@H]1C(=O)NCC(N)=O [GONADORELIN]
IC50: > 20 µM
IC50 (read-out: pIC50 (converted)): > 20 µM

O=C(O)CCc1c[nH]c2ccccc12 [INDOLYLPROPIONIC ACID]
IC50: > 20 µM
IC50 (read-out: pIC50 (converted)): > 20 µM

COc1ccc2c3c1OC1C(O)C=CC4C(C2)[N+](C)(C)CCC341 (stereo not given)
IC50: > 20 µM
IC50 (read-out: pIC50 (converted)): > 20 µM

O=C(O)c1ccccn1 [2-PICOLINIC ACID]
IC50: > 20 µM
IC50 (read-out: pIC50 (converted)): > 20 µM

C/C=C/C[C@@H](C)[C@@H](O)[C@H]1C(=O)N[C@@H](CC)C(=O)N(C)CC(=O)N(C)[C@@H]([C@@H](C)CC)C(=O)N[C@@H](C(C)C)C(=O)N(C)[C@@H](CC(C)C)C(=O)N[C@@H](C)C(=O)N[C@H](C)C(=O)N(C)[C@@H](CC(C)C)C(=O)N(C)[C@@H](CC(C)C)C(=O)N(C)[C@@H](C(C)C)C(=O)N1C [NIM811]
IC50: > 20 µM
IC50 (read-out: pIC50 (converted)): > 20 µM

OC[C@@H]1CCCN2CCCCC12 (stereo not given in full)
IC50: > 20 µM
IC50 (read-out: pIC50 (converted)): > 20 µM

CNCC(=O)O [SARCOSINE]
IC50: > 20 µM
IC50 (read-out: pIC50 (converted)): > 20 µM

CC1=CC(=O)C2=C(C)CCC3[C@H](C)C(=O)O[C@@H]3[C@@H]12 (stereo not given in full)
IC50: > 20 µM
IC50 (read-out: pIC50 (converted)): > 20 µM

CCC(C)C(=O)OC1CC2(C)C(c3ccoc3)OC(=O)CC23OC2(C)OC34C(OC(=O)C(C)C)C3(O)C(OC(=O)C5(C)OC5C)C5(C)CC3(O)C(C)(C5CC(=O)OC)C14O2 (stereo not given)
IC50: > 20 µM
IC50 (read-out: pIC50 (converted)): > 20 µM

O=C(CCCN1CCC(O)(c2ccc(Br)cc2)CC1)c1ccc(F)cc1 [BROMPERIDOL]
IC50: > 20 µM
IC50 (read-out: pIC50 (converted)): > 20 µM

CCOP(=S)(Oc1cccc2cccnc12)c1ccccc1 (stereo not given) [QUINTIOFOS]
IC50: > 20 µM
IC50 (read-out: pIC50 (converted)): > 20 µM

Oc1c(Br)cc(Br)c2cccnc12 [BROXYQUINOLINE]
IC50: > 20 µM
IC50 (read-out: pIC50 (converted)): > 20 µM

CC1(C)OC(=O)NC1=O [DIMETHADIONE]
IC50: > 20 µM
IC50 (read-out: pIC50 (converted)): > 20 µM

O=C1[C@@H]2[C@H]3CC[C@H](C3)[C@@H]2C(=O)N1CCCCN1CCN(c2ncccn2)CC1 [TANDOSPIRONE]
IC50: > 20 µM
IC50 (read-out: pIC50 (converted)): > 20 µM

CC(=O)Oc1ccc(C2(c3ccc(OC(C)=O)cc3)C(=O)Nc3ccccc32)cc1 [OXYPHENISATIN ACETATE]
IC50: > 20 µM
IC50 (read-out: pIC50 (converted)): > 20 µM

COc1ccc(-n2[nH]c(=O)c3[nH]c4cc(Cl)ccc4c(=O)c3c2=O)c(C)c1
IC50: > 20 µM
IC50 (read-out: pIC50 (converted)): > 20 µM

CCCNC(C)(C)COC(=O)c1ccccc1 [MEPRYLCAINE]
IC50: > 20 µM
IC50 (read-out: pIC50 (converted)): > 20 µM

Cc1cccc(C)c1NC(=O)C1(N(C)C)CCN([C@H]2CCCC[C@@H]2O)CC1
IC50: > 20 µM
IC50 (read-out: pIC50 (converted)): > 20 µM

N=C(N)N1CCCC(CNC(=O)CC(NS(=O)(=O)c2ccc3ccccc3c2)C(=O)N(CC(=O)O)C2CC2)C1 (stereo not given)
IC50: > 20 µM
IC50 (read-out: pIC50 (converted)): > 20 µM

Cc1cc(C(C#N)c2ccc(Cl)cc2)c(Cl)cc1NC(=O)c1cc(I)cc(I)c1O (stereo not given) [CLOSANTEL]
IC50: > 20 µM
IC50 (read-out: pIC50 (converted)): > 20 µM

O=C1C(Cl)=C(Cl)C(=O)C(Cl)=C1Cl [CHLORANIL]
IC50: > 20 µM
IC50 (read-out: pIC50 (converted)): > 20 µM

CCCNC(C)C(=O)Nc1ccccc1C (stereo not given) [PRILOCAINE]
IC50: > 20 µM
IC50 (read-out: pIC50 (converted)): > 20 µM

CC1(C)SCCN(S(=O)(=O)c2ccc(Oc3ccncc3)cc2)[C@@H]1C(=O)NO
IC50: > 20 µM
IC50 (read-out: pIC50 (converted)): > 20 µM

CC(=O)O[C@@H]1CCC2C3CCc4cc(O)ccc4C3CCC21C (stereo not given in full)
IC50: > 20 µM
IC50 (read-out: pIC50 (converted)): > 20 µM

Nc1ccc(S(=O)(=O)Nc2cnc3ccccc3n2)cc1 [SULFAQUINOXALINE]
IC50: > 20 µM
IC50 (read-out: pIC50 (converted)): > 20 µM

CC[C@H](Nc1ncnc2[nH]cnc12)c1nc2cccc(F)c2c(=O)n1-c1ccccc1 [IDELALISIB]
IC50: > 20 µM
IC50 (read-out: pIC50 (converted)): > 20 µM

CCN(CC)CC(OC(=O)c1ccccc1)c1ccccc1 (stereo not given) [ELUCAINE]
IC50: > 20 µM
IC50 (read-out: pIC50 (converted)): > 20 µM

CCOC(=O)[C@H](CCc1ccccc1)N[C@@H](C)C(=O)N1CCC[C@H]1C(=O)O
IC50: > 20 µM
IC50 (read-out: pIC50 (converted)): > 20 µM

O=C1CN=C(c2ccccc2)c2cc(Cl)ccc2N1 [NORDAZEPAM]
IC50: > 20 µM
IC50 (read-out: pIC50 (converted)): > 20 µM

C#CCOC[C@@H]1CO[C@@](Cn2ccnc2)(c2ccc(Cl)cc2Cl)O1
IC50: > 20 µM
IC50 (read-out: pIC50 (converted)): > 20 µM

FC(F)c1nc2ccccc2n1-c1nc(N2CCOCC2)nc(N2CCOCC2)n1 [ZSTK-474]
IC50: > 20 µM
IC50 (read-out: pIC50 (converted)): > 20 µM

Cc1ccc2c(Br)cc(Br)c(OC(=O)c3ccccc3)c2n1 [BROXALDINE]
IC50: > 20 µM
IC50 (read-out: pIC50 (converted)): > 20 µM

C[C@@H]1C(=O)NC2=Nc3cccc(Cl)c3CN21 [QUAZINONE]
IC50: > 20 µM
IC50 (read-out: pIC50 (converted)): > 20 µM

CN(C)CCN1C(=O)CC(c2ccccc2)Sc2ccccc21 (stereo not given) [THIAZESIM]
IC50: > 20 µM
IC50 (read-out: pIC50 (converted)): > 20 µM

O=C(O)c1cccnc1 [NIACIN]
IC50: > 20 µM
IC50 (read-out: pIC50 (converted)): > 20 µM

CC1(C)CC[C@]2(C(=O)O)CC[C@]3(C)C(=CCC4[C@@]5(C)CC[C@@H](O)[C@@](C)(CO)C5CC[C@]43C)C2C1 (stereo not given in full)
IC50: > 20 µM
IC50 (read-out: pIC50 (converted)): > 20 µM

CC(C)(C)NCC(O)c1ccc(O)c(O)c1 (stereo not given) [COLTEROL]
IC50: > 20 µM
IC50 (read-out: pIC50 (converted)): > 20 µM

N[C@H]1C[C@@H]1c1ccccc1 [(+)-TRANYLCYPROMINE]
IC50: > 20 µM
IC50 (read-out: pIC50 (converted)): > 20 µM

O=C(O)P(=O)(O)O [FOSCARNET]
IC50: > 20 µM
IC50 (read-out: pIC50 (converted)): > 20 µM

CC(CNC1CCCCC1)OC(=O)c1ccccc1 (stereo not given) [HEXYLCAINE]
IC50: > 20 µM
IC50 (read-out: pIC50 (converted)): > 20 µM

CC(C)CN(C[C@@H](O)[C@H](Cc1ccccc1)NC(=O)O[C@H]1CCOC1)S(=O)(=O)c1ccc(N)cc1
IC50: > 20 µM
IC50 (read-out: pIC50 (converted)): > 20 µM

CC(C)(C)c1ccc(Oc2ccc(N)cn2)cc1 [LIMANTRAFIN]
IC50: > 20 µM
IC50 (read-out: pIC50 (converted)): > 20 µM

COc1c2ccoc2nc2c(OC)c(OC[C@@H](O)C(C)(C)O)ccc12
IC50: > 20 µM
IC50 (read-out: pIC50 (converted)): > 20 µM

CC12CCC3C(CCC4(O)CC(O)CCC34C=O)C1(O)CCC2C1=CC(=O)OC1 (stereo not given)
IC50: > 20 µM
IC50 (read-out: pIC50 (converted)): > 20 µM

COc1ccc(-c2ccc3cc(C(=O)O)ccc3c2)cc1C12CC3CC(CC(C3)C1)C2
IC50: > 20 µM
IC50 (read-out: pIC50 (converted)): > 20 µM

O=C(NC(CO)C(O)c1ccc([N+](=O)[O-])cc1)C(Cl)Cl (stereo not given)
IC50: > 20 µM
IC50 (read-out: pIC50 (converted)): > 20 µM

COc1c(C)cnc(Cn2cnc3c(Cl)nc(N)nc32)c1C [BIIB021]
IC50: > 20 µM
IC50 (read-out: pIC50 (converted)): > 20 µM

CN(C)CCC=C1c2ccccc2CCc2ccccc21 [AMITRIPTYLINE]
IC50: > 20 µM
IC50 (read-out: pIC50 (converted)): > 20 µM

CCOC(=O)C(CCc1ccccc1)NC(C)C(=O)N(CC(=O)O)C1Cc2ccccc2C1 (stereo not given)
IC50: > 20 µM
IC50 (read-out: pIC50 (converted)): > 20 µM

NC(=O)c1ccc(N)nc1 [6-AMINONICOTINAMIDE]
IC50: > 20 µM
IC50 (read-out: pIC50 (converted)): > 20 µM

Sc1ncnc2nc[nH]c12 [MERCAPTOPURINE ANHYDROUS]
IC50: > 20 µM
IC50 (read-out: pIC50 (converted)): > 20 µM

OC[C@H]1O[C@@H](n2cnc3c2N=CNC[C@H]3O)C[C@@H]1O [PENTOSTATIN]
IC50: > 20 µM
IC50 (read-out: pIC50 (converted)): > 20 µM

CO[C@@H]1[C@H](OP(=O)(OC[C@H]2O[C@@H](n3cnc4c(N)ncnc43)C[C@@H]2O)SCOC(=O)OC(C)C)[C@@H](CO)O[C@H]1n1ccc(=O)[nH]c1=O (stereo not given in full) [INARIGIVIR SOPROXIL]
IC50: > 20 µM
IC50 (read-out: pIC50 (converted)): > 20 µM

CC(C)(C(=O)O)c1ccc(C(O)CCCN2CCC(C(O)(c3ccccc3)c3ccccc3)CC2)cc1 (stereo not given) [FEXOFENADINE]
IC50: > 20 µM
IC50 (read-out: pIC50 (converted)): > 20 µM

CC(C)C(=O)OC[C@@]1(N=[N+]=[N-])O[C@@H](n2ccc(N)nc2=O)[C@H](OC(=O)C(C)C)[C@@H]1OC(=O)C(C)C [BALAPIRAVIR]
IC50: > 20 µM
IC50 (read-out: pIC50 (converted)): > 20 µM

C#Cc1cncc([C@@H]2CCCN2C)c1 [ALTINICLINE]
IC50: > 20 µM
IC50 (read-out: pIC50 (converted)): > 20 µM
